Columns and labels:
[1] = tested on: normal NK cells expanded with K562-aAPC; experiment: drug sensitivity score (DSS) (DSS units); higher = more sensitive; extreme values may be limits of the assay; settings: 72 h; IL-2 2.5 ng/mL
Protocol: (§1)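 Drug sensitivity and resistance testing on K562-aAPC-expanded normal NK cells: 5 concentrations (10-fold steps over a 10,000-fold range), 72 h at 37 °C, viability by CellTiter-Glo normalised to DMSO and benzethonium chloride controls; DSS from the fitted curve.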

[2] = tested on: NK-92 (IL-2 2.5 ng/mL); experiment: percent inhibition of viability; higher = more inhibition; settings: 72 h
[3] = tested on: normal primary NK cells, pool 2 (3 donors) (IL-2 2.5 ng/mL); experiment: as above; settings: 72 h
[4] = tested on: KAI3 (IL-2 2.5 ng/mL); experiment: as above; settings: 72 h
[5] = tested on: NK-YS (IL-2 2.5 ng/mL); experiment: as above; settings: 72 h
[6] = tested on: KHYG-1 (IL-2 2.5 ng/mL); experiment: as above; settings: 72 h
[7] = tested on: normal primary NK cells, pool 1 (3 donors) (IL-2 2.5 ng/mL); experiment: as above; settings: 72 h
[8] = tested on: NKL (IL-2 2.5 ng/mL); experiment: as above; settings: 72 h
[9] = tested on: normal primary NK cells, pool 3 (3 donors) (IL-2 2.5 ng/mL); experiment: as above; settings: 72 h
[10] = tested on: DERL-7 (IL-2 2.5 ng/mL); experiment: as above; settings: 72 h
[11] = tested on: YT (IL-2 2.5 ng/mL); experiment: as above; settings: 72 h
[12] = tested on: normal primary NK cells, pool 1 (3 donors), resting (IL-2 0 ng/mL); experiment: as above; settings: 72 h
[13] = tested on: IMC-1 (IL-2 20 ng/mL); experiment: as above; settings: 72 h
[14] = tested on: SNK-6 (IL-2 2.5 ng/mL); experiment: as above; settings: 72 h
[15] = tested on: normal NK cells expanded with K562-aAPC; experiment: as above; settings: 72 h, IL-2 2.5 ng/mL
Protocol: as §1

[16] = tested on: NK-92 (IL-2 2.5 ng/mL); experiment: drug sensitivity score (DSS) (DSS units); higher = more sensitive; extreme values may be limits of the assay; settings: 72 h
[17] = tested on: normal primary NK cells, pool 2 (3 donors) (IL-2 2.5 ng/mL); experiment: as above; settings: 72 h
[18] = tested on: KAI3 (IL-2 2.5 ng/mL); experiment: as above; settings: 72 h
[19] = tested on: NK-YS (IL-2 2.5 ng/mL); experiment: as above; settings: 72 h
[20] = tested on: KHYG-1 (IL-2 2.5 ng/mL); experiment: as above; settings: 72 h
[21] = tested on: normal primary NK cells, pool 1 (3 donors) (IL-2 2.5 ng/mL); experiment: as above; settings: 72 h
[22] = tested on: NKL (IL-2 2.5 ng/mL); experiment: as above; settings: 72 h
[23] = tested on: normal primary NK cells, pool 3 (3 donors) (IL-2 2.5 ng/mL); experiment: as above; settings: 72 h
[24] = tested on: DERL-7 (IL-2 2.5 ng/mL); experiment: as above; settings: 72 h
[25] = tested on: YT (IL-2 2.5 ng/mL); experiment: as above; settings: 72 h
[26] = tested on: normal primary NK cells, pool 1 (3 donors), resting (IL-2 0 ng/mL); experiment: as above; settings: 72 h
[27] = tested on: IMC-1 (IL-2 20 ng/mL); experiment: as above; settings: 72 h
[28] = tested on: SNK-6 (IL-2 2.5 ng/mL); experiment: as above; settings: 72 h

C[C@@H](Oc1cc(-c2cnn(C3CCNCC3)c2)cnc1N)c1c(Cl)ccc(F)c1Cl [Crizotinib] (max concentration tested 1000 nM)
Settings	drug sensitivity score
[1]	0.44
[16]	3.72
[17]	0.49
[18]	1.25
[19]	0.12
[20]	0.95
[21]	2.41
[22]	3.75
[23]	0.4
[24]	0.81
[25]	1.25
[26]	1.99
[27]	0
[28]	0

percent inhibition of viability [%]
Settings	0.1 nM	1 nM	10 nM	100 nM	1000 nM
[2]	-12.7	0.5	-4.15	16.4	34.7
[3]	-7.13	-11.6	-1.57	-2.22	20.3
[4]	-4.43	-13.2	-10.6	-0.67	30.1
[5]	-6.03	-14.8	-8.66	-7.59	15.5
[6]	-1.4	-6.18	0.71	2.28	20.6
[7]	-4.24	-0.87	8.61	7.22	32.6
[8]	-3.16	-3.23	-5.42	9.67	43.3
[9]	-11.7	-8.52	6.99	-0.76	18
[10]	-0.63	5.41	-1.8	-2.42	25.2
[11]	-0.11	-5.24	-1.87	2.08	25.1
[12]	-6.8	-15.6	-1.32	0.53	39.1
[13]	-4.84	-8.42	-0.95	5.13	7.41
[14]	-16.1	-28	-15	-17.9	-4.35
[15]	-7.86	-6.31	-9.93	-2.46	19.7

CC[C@H](CO)Nc1nc(NCc2ccccc2)c2ncn(C(C)C)c2n1 [Seliciclib] (max concentration tested 10000 nM)
Settings	drug sensitivity score
[1]	1.71
[16]	4.81
[17]	1.7
[18]	4.72
[19]	3.07
[20]	0.62
[21]	2.2
[22]	3.69
[23]	0.41
[24]	1.62
[25]	4.39
[26]	2.43
[27]	0.28
[28]	0.43

percent inhibition of viability [%]
Settings	1 nM	10 nM	100 nM	1000 nM	10000 nM
[2]	-2.72	-1.58	-0.03	23.2	39.9
[3]	-12.7	-4.83	5.97	1.18	33.5
[4]	-1.01	-9.53	-1.56	6.38	67.1
[5]	8.26	-2	-1.62	7.11	38.7
[6]	4.31	-8.69	-4.34	1.22	18.6
[7]	-1.6	-3.91	11.5	8.66	32.8
[8]	-8.83	-15.7	-16.8	10.3	41.6
[9]	0.36	1.61	11.3	-0.47	17.9
[10]	-1.96	7.05	6.82	0.8	33.1
[11]	2.72	-5.9	-1.61	9.31	53.2
[12]	-1.46	-6.05	15.1	7.69	9.97
[13]	-6.54	-8.7	-1.13	2.41	13.2
[14]	-14.8	-13.5	-3.42	-23.2	23.9
[15]	-5.19	-1.17	-5.63	3.89	27.1

COc1ccc(S(=O)(=O)Nc2cccnc2Nc2ccc(O)cc2)cc1 [ABT-751] (max concentration tested 10000 nM)
Settings	drug sensitivity score
[1]	11.1
[16]	21.4
[17]	0.52
[18]	13.8
[19]	16.3
[20]	20.6
[21]	0.04
[22]	15.4
[23]	1.19
[24]	18.2
[25]	20.3
[26]	5.02
[27]	18.5
[28]	21.9

percent inhibition of viability [%]
Settings	1 nM	10 nM	100 nM	1000 nM	10000 nM
[2]	4.6	3.35	37.3	92.8	91.3
[3]	0.28	3.85	0.94	8.44	14.7
[4]	7.18	10.3	18.4	62.9	74.9
[5]	-0.79	0.15	23.9	70.5	71.2
[6]	-0.83	2.36	14.9	104	104
[7]	-9.52	-12.6	-7.29	0.64	11.6
[8]	-0.28	-14.8	-13.9	90.3	83.4
[9]	4.41	1.96	4.78	13.2	16.7
[10]	5.8	5.64	3.05	99.1	99
[11]	3.24	3.8	13.6	100	96.2
[12]	1.2	-5.61	-12	16.9	49.5
[13]	1.24	2.22	4.35	99.6	99.6
[14]	3.22	10.5	50.7	81.7	89.2
[15]	2.34	4.2	3.33	57.7	58.5

COc1cc2nccc(Oc3ccc(NC(=O)C4(C(=O)Nc5ccc(F)cc5)CC4)cc3)c2cc1OC [Cabozantinib] (max concentration tested 1000 nM)
Settings	drug sensitivity score
[1]	0
[16]	1.73
[17]	0
[18]	0
[19]	0
[20]	0
[21]	0
[22]	0.33
[23]	0
[24]	0
[25]	0.02
[26]	0.01
[27]	0
[28]	0

percent inhibition of viability [%]
Settings	0.1 nM	1 nM	10 nM	100 nM	1000 nM
[2]	1.61	12.2	13.4	2.98	25.1
[3]	-8.26	3.55	9.65	-7.89	11.1
[4]	-1.21	2.25	0.33	-5.2	0.09
[5]	-3.98	-1.22	1.67	-2.46	0.65
[6]	-1.92	1.46	4.91	3.42	7.82
[7]	-2.72	-8.6	-1.12	-10.1	-9.52
[8]	-19	-5.16	-4.38	-6.13	19.2
[9]	-18.8	-3.79	10.5	-12.7	-3.82
[10]	4.09	2.17	6.31	-1.21	8.67
[11]	-1.79	-0.81	0.31	0.38	11.3
[12]	8.87	-5.07	-5.31	-16.9	11.5
[13]	-7.19	0.46	1.98	6.03	8.61
[14]	7.18	7.13	10.3	-6.13	-0.11
[15]	-0.51	2.22	1.52	13.2	5.74

— the supplement of paper PMC5908809
